The record followed here is patent US10793553B2, “TLR7/8 antagonists and uses thereof” (Merck Patent GmbH, priority 2017, dated 2020).

For assay [1], the target named is T1, TLR7 (Homo sapiens, UniProt Q9NYK1).
T1 construct: expressed in transfected cells; host or cells: HEK cells carrying TLR7 and an NFkB luciferase reporter
T1 sequence (Q9NYK1 27-1049): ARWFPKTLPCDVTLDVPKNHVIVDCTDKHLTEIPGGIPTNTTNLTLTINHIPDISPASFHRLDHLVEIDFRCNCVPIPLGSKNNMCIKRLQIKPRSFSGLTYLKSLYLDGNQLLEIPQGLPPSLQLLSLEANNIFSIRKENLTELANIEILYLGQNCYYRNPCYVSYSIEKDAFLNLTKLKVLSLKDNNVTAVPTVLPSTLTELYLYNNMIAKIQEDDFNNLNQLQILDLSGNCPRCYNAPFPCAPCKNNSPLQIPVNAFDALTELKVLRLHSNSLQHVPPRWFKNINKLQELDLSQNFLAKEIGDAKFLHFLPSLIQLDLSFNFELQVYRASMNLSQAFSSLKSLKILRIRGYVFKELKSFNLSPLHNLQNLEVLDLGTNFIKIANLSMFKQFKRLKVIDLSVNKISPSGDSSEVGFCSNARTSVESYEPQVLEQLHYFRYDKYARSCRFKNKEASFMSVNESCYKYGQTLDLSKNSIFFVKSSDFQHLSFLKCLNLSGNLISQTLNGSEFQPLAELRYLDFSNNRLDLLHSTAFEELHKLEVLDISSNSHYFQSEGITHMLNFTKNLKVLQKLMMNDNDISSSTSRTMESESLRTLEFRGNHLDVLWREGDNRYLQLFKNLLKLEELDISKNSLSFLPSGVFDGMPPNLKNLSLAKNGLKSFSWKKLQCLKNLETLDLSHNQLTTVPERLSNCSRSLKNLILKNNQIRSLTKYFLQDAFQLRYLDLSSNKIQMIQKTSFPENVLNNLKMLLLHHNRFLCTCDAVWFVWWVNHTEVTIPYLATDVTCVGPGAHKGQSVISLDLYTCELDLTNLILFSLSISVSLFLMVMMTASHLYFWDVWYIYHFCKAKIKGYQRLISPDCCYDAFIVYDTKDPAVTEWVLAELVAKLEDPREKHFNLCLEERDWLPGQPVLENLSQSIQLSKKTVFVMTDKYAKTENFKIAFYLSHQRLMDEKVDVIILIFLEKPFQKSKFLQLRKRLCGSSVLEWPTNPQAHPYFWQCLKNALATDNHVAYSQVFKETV
The assay is described as follows: HEK TLR7 Cell Assay. The assay is classed as cell-based. The settings on record: TLR7/NFKb HEK cells, R848 agonist 10 uM final, Steady-Glo readout. The procedure: Example 24: HEK TLR7 Cell Assay
(§1) Into 384 CulturePlates (Corning 3707) was placed 5000 c/w of TLR7/NFKb HEK cells in 30 uL DMEM without Phenol red (gibco #31053) and 10% FCS-HI, 2 mM L-Glutamine, 1% Pen/Strept. The cells are incubated for 24 h at 37 degrees Celsius, and 10% carbon dioxide. Dispense 3 uL of controls, standards, and compounds to wells, incubate for 30 min then add 3 uL of R848 (10 uM final concentration) agonist in 20 mM Hepes. Incubate for 5 hours and then allow to stand at room temperature for 15 min. Add 10 uL of Steady-Glo substrate reagent and shake assay plate for 5 min at 1500 rpm. Let the assay plate sit for 30 min at room temperature and then read plate on EnVision.

The target in assay [2] is T2, TLR8 (Homo sapiens, UniProt Q9NR97).
T2 construct: expressed in transfected cells; host or cells: HEK cells carrying TLR8 and an NFkB luciferase reporter
T2 sequence (Q9NR97 27-1041): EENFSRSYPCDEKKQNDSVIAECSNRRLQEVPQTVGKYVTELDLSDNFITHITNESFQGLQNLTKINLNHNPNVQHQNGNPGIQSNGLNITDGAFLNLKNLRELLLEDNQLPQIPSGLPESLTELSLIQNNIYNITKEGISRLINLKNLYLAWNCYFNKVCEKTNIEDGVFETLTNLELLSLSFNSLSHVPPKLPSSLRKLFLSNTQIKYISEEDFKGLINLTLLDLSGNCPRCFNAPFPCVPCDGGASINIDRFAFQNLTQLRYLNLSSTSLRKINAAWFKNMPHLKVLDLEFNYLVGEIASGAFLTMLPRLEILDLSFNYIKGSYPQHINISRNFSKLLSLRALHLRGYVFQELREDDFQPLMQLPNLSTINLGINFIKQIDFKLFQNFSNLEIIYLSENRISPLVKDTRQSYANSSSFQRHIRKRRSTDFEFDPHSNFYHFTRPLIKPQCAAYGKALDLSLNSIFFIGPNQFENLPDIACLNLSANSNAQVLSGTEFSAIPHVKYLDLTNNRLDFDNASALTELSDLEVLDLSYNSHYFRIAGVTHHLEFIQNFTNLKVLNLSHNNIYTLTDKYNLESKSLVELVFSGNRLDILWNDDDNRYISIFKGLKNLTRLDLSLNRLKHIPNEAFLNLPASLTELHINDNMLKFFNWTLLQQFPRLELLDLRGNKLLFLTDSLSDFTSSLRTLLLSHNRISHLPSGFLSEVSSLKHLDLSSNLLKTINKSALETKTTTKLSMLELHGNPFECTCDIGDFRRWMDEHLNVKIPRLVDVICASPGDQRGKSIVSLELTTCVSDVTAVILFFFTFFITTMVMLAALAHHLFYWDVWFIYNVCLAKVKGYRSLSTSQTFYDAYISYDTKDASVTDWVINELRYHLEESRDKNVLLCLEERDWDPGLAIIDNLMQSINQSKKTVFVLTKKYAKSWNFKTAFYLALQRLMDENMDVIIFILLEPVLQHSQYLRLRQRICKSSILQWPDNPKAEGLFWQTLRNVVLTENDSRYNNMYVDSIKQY
The assay is described as follows: HEK TLR8 Cell Assay. Type of assay: cell-based. The conditions noted are these: TLR8/NFKb HEK cells, R848 agonist 30 uM final, Steady-Glo readout. The procedure: Example 25: HEK TLR8 Cell Assay
as §1, with “TLR8/NFKb” for “TLR7/NFKb”, “(30” for “(10”

For orientation: IC50 means the concentration at which inhibition is half-maximal. Low readings indicate higher potency, high ones lower potency. Turning to `C[C@@H]1CN(c2ccc(C#N)c3nccnc23)C[C@@H]1NC(=O)CC1CCCN(C)C1` (single isomer, unassigned) [Compound 3], the IC50 in assay [1] and in assay [2] was below 1000 nM throughout.

On to `C[C@@H]1CN(c2ccc(C#N)c3nccnc23)C[C@@H]1NC(=O)CC1CCCN(C)C1` (single isomer, unassigned) [Compound 4], for which the IC50 in assay [1] and in assay [2] was below 1000 nM each time.

On to `C[C@@H]1CN(c2ccc(C#N)c3nccnc23)C[C@@H]1NC(=O)CC1CCN(C)C1` (single isomer, unassigned) [Compound 5], for which the IC50 in assay [1] and in assay [2] was below 1000 nM in each case.

In the case of `C[C@@H]1CN(c2ccc(C#N)c3nccnc23)C[C@@H]1NC(=O)CC1CCN(C)C1` (single isomer, unassigned) [Compound 6], the IC50 in assay [1] and in assay [2] was below 1000 nM throughout.

For `C[C@@H]1CN(c2ccc(C#N)c3nccnc23)C[C@@H]1NC(=O)CC1CCN(C)CC1(F)F` (single isomer, unassigned) [Compound 11], the concentration for half-maximal inhibition (IC50) in assay [1] and in assay [2] was below 1000 nM each time.

`C[C@@H]1CN(c2ccc(C#N)c3nccnc23)C[C@@H]1NC(=O)CC1CCN(C)CC1(F)F` (single isomer, unassigned) [Compound 12]: the half-maximal inhibitory concentration (IC50) in assay [1] and in assay [2] was below 1000 nM each time.

For the compound `C[C@@H]1CN(c2ccc(C#N)c3nccnc23)C[C@@H]1NC(=O)C(O)C1CC1` (single isomer, unassigned) [Compound 13], the half-inhibitory concentration (IC50) in assay [1] is 1000 to 10000 nM; in assay [2], above 10000 nM.

Regarding `C[C@@H]1CN(c2ccc(C#N)c3nccnc23)C[C@@H]1NC(=O)C(O)C1CC1` (single isomer, unassigned) [Compound 14], the IC50 was below 1000 nM in assay [1] and 1000 to 10000 nM in assay [2].

As to `C[C@@H]1CN(c2ccc(C(F)(F)F)c3ncccc23)C[C@@H]1NC(=O)CC1CCCN(C)C1` (single isomer, unassigned) [Compound 19], the concentration for half-maximal inhibition (IC50) in assay [1] and in assay [2] was below 1000 nM in each case.

`C[C@@H]1CN(c2ccc(C(F)(F)F)c3ncccc23)C[C@@H]1NC(=O)CC1CCCN(C)C1` (single isomer, unassigned) [Compound 20]: the 50% inhibitory concentration (IC50) in assay [1] was below 1000 nM; in assay [2], 1000 to 10000 nM.

`C[C@@H]1CN(c2ccc(C(F)(F)F)c3ncccc23)C[C@@H]1NC(=O)CC1CCN(C)C1` (single isomer, unassigned) [Compound 21]: the IC50 in assay [1] and in assay [2] was below 1000 nM each time.

Consider `C[C@@H]1CN(c2ccc(C(F)(F)F)c3ncccc23)C[C@@H]1NC(=O)CC1CCN(C)C1` (single isomer, unassigned) [Compound 22], for which the IC50 in assay [1] and in assay [2] was below 1000 nM in each case.

Consider `C[C@@H]1CN(c2ccc(C(F)(F)F)c3ncccc23)C[C@@H]1NC(=O)CC1CCN(C)CC1(F)F` (single isomer, unassigned) [Compound 27], for which the concentration for half-maximal inhibition (IC50) in assay [1] and in assay [2] was 1000 to 10000 nM in each case.

In the case of `C[C@@H]1CN(c2ccc(C(F)(F)F)c3ncccc23)C[C@@H]1NC(=O)CC1CCN(C)CC1(F)F` (single isomer, unassigned) [Compound 28], the IC50 in assay [1] and in assay [2] was 1000 to 10000 nM throughout.

As to `C[C@@H]1CN(c2ccc(C(F)(F)F)c3ncccc23)C[C@@H]1NC(=O)C(O)C1CC1` (single isomer, unassigned) [Compound 29], the results for the IC50 in assay [1] and in assay [2] were 1000 to 10000 nM and above 10000 nM, respectively.

With `C[C@@H]1CN(c2ccc(C(F)(F)F)c3ncccc23)C[C@@H]1NC(=O)C(O)C1CC1` (single isomer, unassigned) [Compound 30], the 50% inhibitory concentration (IC50) in assay [1] and in assay [2] was 1000 to 10000 nM in each case.

Regarding `Cc1ccc(N2C[C@@H](C)[C@@H](NC(=O)CC3CCCN(C)C3)C2)c2cccnc12` (single isomer, unassigned) [Compound 35], the IC50 in assay [1] and in assay [2] was 1000 to 10000 nM in each case.

Turning to `Cc1ccc(N2C[C@@H](C)[C@@H](NC(=O)CC3CCCN(C)C3)C2)c2cccnc12` (single isomer, unassigned) [Compound 36], the IC50 is below 1000 nM in assay [1] and 1000 to 10000 nM in assay [2].

Regarding `Cc1ccc(N2C[C@@H](C)[C@@H](NC(=O)CC3CCN(C)C3)C2)c2cccnc12` (single isomer, unassigned) [Compound 37], the figures for the IC50 in assay [1] and in assay [2] were below 1000 nM and 1000 to 10000 nM, respectively.

`Cc1ccc(N2C[C@@H](C)[C@@H](NC(=O)CC3CCN(C)C3)C2)c2cccnc12` (single isomer, unassigned) [Compound 38]: the results for the IC50 in assay [1] and in assay [2] were below 1000 nM and 1000 to 10000 nM, respectively.

As for `Cc1ccc(N2C[C@@H](C)[C@@H](NC(=O)CC3CCN(C)CC3(F)F)C2)c2cccnc12` (single isomer, unassigned) [Compound 43], the figures for the concentration for half-maximal inhibition (IC50) in assay [1] and in assay [2] were 1000 to 10000 nM and above 10000 nM, respectively.

For the compound `Cc1ccc(N2C[C@@H](C)[C@@H](NC(=O)CC3CCN(C)CC3(F)F)C2)c2cccnc12` (single isomer, unassigned) [Compound 44], the IC50 in assay [1] and in assay [2] was 1000 to 10000 nM throughout.

`Cc1ccc(N2C[C@@H](C)[C@@H](NC(=O)C(O)C3CC3)C2)c2cccnc12` (single isomer, unassigned) [Compound 45]: the IC50 in assay [1] and in assay [2] was above 10000 nM throughout.

On to `Cc1ccc(N2C[C@@H](C)[C@@H](NC(=O)C(O)C3CC3)C2)c2cccnc12` (single isomer, unassigned) [Compound 46], for which the half-inhibitory concentration (IC50) was 1000 to 10000 nM in assay [1] and above 10000 nM in assay [2].

Take `NC1CN(c2ccc(C(F)(F)F)c3ncccc23)CC1F` (single isomer, unassigned) [Compound 49]: the IC50 in assay [1] and in assay [2] was above 10000 nM in each case.

Regarding `NC1CN(c2ccc(C(F)(F)F)c3ncccc23)CC1F` (single isomer, unassigned) [Compound 50], the half-inhibitory concentration (IC50) in assay [1] and in assay [2] was above 10000 nM each time.
